Activity calls are given as the source filed them. The calls are words filed in the database; no cut-off is given here.
Columns and labels:
Danio rerio [1] = species on record: Danio rerio; assay: Inhibition of larval development in zebra fish assessed as mortality at 10 ug/mL after 24 hrs; format: functional; design: scale not given: the % may be the effect or the level left
Danio rerio [2] = species on record: Danio rerio; assay: Inhibition of larval development in zebra fish assessed as mortality at 10 ug/mL after 48 hrs; format: functional; design: scale not given: the % may be the effect or the level left
Danio rerio [3] = species on record: Danio rerio; assay: Inhibition of larval development in zebra fish assessed as retardation of blood circulatory system development at 10 ug/mL after 24 hrs; format: functional, organism-based
Danio rerio [4] = species on record: Danio rerio; assay: Inhibition of larval development in zebra fish assessed as retardation of blood circulatory system development at 10 ug/mL after 32 hrs; format: functional, organism-based
Danio rerio [5] = assay: Inhibition of larval development in zebra fish assessed as induction of edema in heart at 10 ug/mL after 3 days; format: functional, organism-based
Danio rerio [6] = species on record: Danio rerio; assay: Inhibition of larval development in zebra fish assessed as induction of thrombosis in heart at 10 ug/mL after 3 days; format: functional, organism-based
Danio rerio [7] = species on record: Danio rerio; assay: Inhibition of larval development in zebra fish at 1 ug/mL; format: functional, organism-based
Danio rerio [8] = assay: Inhibition of larval development in zebra fish assessed as induction of edema in heart at 100 ug/mL after 5 days; format: functional, organism-based
Danio rerio [9] = assay: Inhibition of larval development in zebra fish assessed as induction of edema in heart at 100 ug/mL after 3 days; format: functional, organism-based
Danio rerio [10] = species on record: Danio rerio; assay: Inhibition of larval development in zebra fish assessed as tail bending at 100 ug/mL after 3 days; format: functional; design: scale not given: the % may be the effect or the level left
Danio rerio [11] = species on record: Danio rerio; assay: Inhibition of larval development in zebra fish assessed as tail bending at 100 ug/mL after 5 days; format: functional, organism-based
Danio rerio [12] = species on record: Danio rerio; assay: Inhibition of larval development in zebra fish at 10 ug/mL; format: functional, organism-based
Danio rerio [13] = species on record: Danio rerio; assay: Inhibition of larval development in zebra fish assessed as effect on larval mortality at 10 ug/mL; format: functional, organism-based
Danio rerio [14] = species on record: Danio rerio; assay: Inhibition of larval development in zebra fish assessed as effect on larval mortality at 100 ug/mL; format: functional, organism-based

SMILES	Activity (Danio rerio [1]) [%]	Activity (Danio rerio [2]) [%]	Activity (Danio rerio [3])	Activity (Danio rerio [4])	Activity (Danio rerio [5])	Activity (Danio rerio [6])	Activity (Danio rerio [7])	Activity (Danio rerio [8])	Activity (Danio rerio [9])	Activity (Danio rerio [10]) [%]	Activity (Danio rerio [11])	Activity (Danio rerio [12])	Activity (Danio rerio [13])	Activity (Danio rerio [14])
CC/C=C\C[C@@H]1O[C@H]1/C=C/C1CCCCCCCC(=O)O1 (relative stereo) [MUEGGELONE]	45	45	Active	Active	Active	Active	inactive	–	–	–	–	–	–	–
C=C(C)[C@@H]1CC[C@]2(C)CC[C@]3(C)[C@H](CC[C@@H]4[C@@]5(C)CC[C@H](OC(C)=O)C(C)(C)[C@@H]5CC[C@]43C)[C@@H]12 [LUPENYL ACETATE]	–	–	–	–	–	–	–	Active	Active	30	Active	inactive	inactive	inactive
